# From patent US6518243B1, “Desleucyl glycopeptide antibiotics and methods of making same” (Trustees of Princeton University, priority 1999, dated 2003)
# Test system: E. faecalis (CL 4877)
# Test: Zone of inhibition screen, 96 well agar array format
# Format: cell-based
# Set-up: scale not given here
# Conditions: zone of inhibition relative to 1 mg/ml p-chlorobiphenylvancomycin
# Description: (§1) The antibacterial activity of each of the compounds against the bacterial strains E. faceium (ATCC 49624), S. epidermidis (ATCC 12228), S. aureus (ATCC 29213), E. faecalis (CL 4877) and E. faecalis (ATCC 292121) was tested. Each of the compounds was screened in a 96 will agar array format.
row,Structure (SMILES),"zone score, E. faecalis CL 4877"
1,CCSCC(=O)NC1C(=O)NC(CC(N)=O)C(=O)NC2C(=O)NC3C(=O)NC(C(=O)NC(C(=O)O)c4cc(O)cc(O)c4-c4cc3ccc4O)C(O)c3ccc(c(Cl)c3)Oc3cc2cc(c3OC2OC(CO)C(O)C(O)C2OC2CC(C)(NCc3ccc(-c4ccc(Cl)cc4)cc3)C(O)C(C)O2)Oc2ccc(cc2Cl)C1O (stereo not shown) [Compound 225],2
2,CC1OC(OC2C(Oc3c4cc5cc3Oc3ccc(cc3Cl)C(O)C3NC(=O)C(NC(=O)C5NC(=O)C(CC(N)=O)NC(=O)C(NC(=O)c5cccnc5O)C(O)c5ccc(c(Cl)c5)O4)c4ccc(O)c(c4)-c4c(O)cc(O)cc4C(C(=O)O)NC3=O)OC(CO)C(O)C2O)CC(C)(NCc2ccc(-c3ccc(Cl)cc3)cc2)C1O (stereo not shown) [Compound 241],2
3,CCC(=O)C(=O)NC1C(=O)NC(CC(N)=O)C(=O)NC2C(=O)NC3C(=O)NC(C(=O)NC(C(=O)O)c4cc(O)cc(O)c4-c4cc3ccc4O)C(O)c3ccc(c(Cl)c3)Oc3cc2cc(c3OC2OC(CO)C(O)C(O)C2OC2CC(C)(NCc3ccc(-c4ccc(Cl)cc4)cc3)C(O)C(C)O2)Oc2ccc(cc2Cl)C1O (stereo not shown) [Compound 242],2
4,CC1OC(OC2C(Oc3c4cc5cc3Oc3ccc(cc3Cl)C(O)C3NC(=O)C(NC(=O)C5NC(=O)C(CC(N)=O)NC(=O)C(NC(=O)CC(F)(F)F)C(O)c5ccc(c(Cl)c5)O4)c4ccc(O)c(c4)-c4c(O)cc(O)cc4C(C(=O)O)NC3=O)OC(CO)C(O)C2O)CC(C)(NCc2ccc(-c3ccc(Cl)cc3)cc2)C1O (stereo not shown) [Compound 249],2
5,C[C@H]1O[C@H](O[C@H]2[C@H](Oc3c4cc5cc3Oc3ccc(cc3Cl)[C@@H](O)[C@@H](NC(=O)/C=C/c3ccc(Cl)c(Cl)c3)C(=O)N[C@@H](CC(N)=O)C(=O)N[C@H]5C(=O)N[C@H]3C(=O)N[C@H](C(=O)N[C@@H](C(=O)O)c5cc(O)cc(O)c5-c5cc3ccc5O)[C@H](O)c3ccc(c(Cl)c3)O4)O[C@H](CO)[C@@H](O)[C@@H]2O)C[C@@](C)(NCc2ccc(-c3ccc(Cl)cc3)cc2)[C@H]1O [Compound 251],2
6,CC1OC(OC2C(Oc3c4cc5cc3Oc3ccc(cc3Cl)C(O)C3NC(=O)C(NC(=O)C5NC(=O)C(CC(N)=O)NC(=O)C(NC(=O)c5ccc(N)cc5)C(O)c5ccc(c(Cl)c5)O4)c4ccc(O)c(c4)-c4c(O)cc(O)cc4C(C(=O)O)NC3=O)OC(CO)C(O)C2O)CC(C)(NCc2ccc(-c3ccc(Cl)cc3)cc2)C1O (stereo not shown) [Compound 268],2
7,CC1OC(OC2C(Oc3c4cc5cc3Oc3ccc(cc3Cl)C(O)C3NC(=O)C(NC(=O)C5NC(=O)C(CC(N)=O)NC(=O)C(NC(=O)c5cccnc5)C(O)c5ccc(c(Cl)c5)O4)c4ccc(O)c(c4)-c4c(O)cc(O)cc4C(C(=O)O)NC3=O)OC(CO)C(O)C2O)CC(C)(NCc2ccc(-c3ccc(Cl)cc3)cc2)C1O (stereo not shown) [Compound 307],2
8,CC1OC(OC2C(Oc3c4cc5cc3Oc3ccc(cc3Cl)C(O)C3NC(=O)C(NC(=O)C5NC(=O)C(CC(N)=O)NC(=O)C(NC(=O)c5ccccc5O)C(O)c5ccc(c(Cl)c5)O4)c4ccc(O)c(c4)-c4c(O)cc(O)cc4C(C(=O)O)NC3=O)OC(CO)C(O)C2O)CC(C)(NCc2ccc(-c3ccc(Cl)cc3)cc2)C1O (stereo not shown) [Compound 315],2
9,CC1OC(OC2C(Oc3c4cc5cc3Oc3ccc(cc3Cl)C(O)C3NC(=O)C(NC(=O)C5NC(=O)C(CC(N)=O)NC(=O)C(NC(=O)C5CCOC5)C(O)c5ccc(c(Cl)c5)O4)c4ccc(O)c(c4)-c4c(O)cc(O)cc4C(C(=O)O)NC3=O)OC(CO)C(O)C2O)CC(C)(NCc2ccc(-c3ccc(Cl)cc3)cc2)C1O (stereo not shown) [Compound 317],2

# Test system: S. aureus (ATCC 29213)
# Test: as above
# Format: cell-based
# Set-up: scale not given here
# Conditions: zone of inhibition relative to 1 mg/ml p-chlorobiphenylvancomycin
# Description: as §1
row,Structure (SMILES),"zone score, S. aureus ATCC 29213"
1,COC(=O)C1=C(C)NC(=O)C1CC(=O)NC1C(=O)NC(CC(N)=O)C(=O)NC2C(=O)NC3C(=O)NC(C(=O)NC(C(=O)O)c4cc(O)cc(O)c4-c4cc3ccc4O)C(O)c3ccc(c(Cl)c3)Oc3cc2cc(c3OC2OC(CO)C(O)C(O)C2OC2CC(C)(NCc3ccc(-c4ccc(Cl)cc4)cc3)C(O)C(C)O2)Oc2ccc(cc2Cl)C1O (mixture of isomers) [Compound 299],2
2,CC(C)=C(N)C(=O)NC1C(=O)NC(CC(N)=O)C(=O)NC2C(=O)NC3C(=O)NC(C(=O)NC(C(=O)O)c4cc(O)cc(O)c4-c4cc3ccc4O)C(O)c3ccc(c(Cl)c3)Oc3cc2cc(c3OC2OC(CO)C(O)C(O)C2OC2CC(C)(NCc3ccc(-c4ccc(Cl)cc4)cc3)C(O)C(C)O2)Oc2ccc(cc2Cl)C1O (stereo not shown) [Compound 216],2
3,CC1OC(OC2C(Oc3c4cc5cc3Oc3ccc(cc3Cl)C(O)C(NC(=O)C3(N)CC3)C(=O)NC(CC(N)=O)C(=O)NC5C(=O)NC3C(=O)NC(C(=O)NC(C(=O)O)c5cc(O)cc(O)c5-c5cc3ccc5O)C(O)c3ccc(c(Cl)c3)O4)OC(CO)C(O)C2O)CC(C)(NCc2ccc(-c3ccc(Cl)cc3)cc2)C1O (stereo not shown) [Compound 218],2
4,CC1OC(OC2C(Oc3c4cc5cc3Oc3ccc(cc3Cl)C(O)C3NC(=O)C(NC(=O)C5NC(=O)C(CC(N)=O)NC(=O)C(NC(=O)C(=O)c5ccco5)C(O)c5ccc(c(Cl)c5)O4)c4ccc(O)c(c4)-c4c(O)cc(O)cc4C(C(=O)O)NC3=O)OC(CO)C(O)C2O)CC(C)(NCc2ccc(-c3ccc(Cl)cc3)cc2)C1O (stereo not shown) [Compound 239],2
5,CC1OC(OC2C(Oc3c4cc5cc3Oc3ccc(cc3Cl)C(O)C(NC(=O)C(F)(F)C(F)(F)C(F)(F)C(F)(F)F)C(=O)NC(CC(N)=O)C(=O)NC5C(=O)NC3C(=O)NC(C(=O)NC(C(=O)O)c5cc(O)cc(O)c5-c5cc3ccc5O)C(O)c3ccc(c(Cl)c3)O4)OC(CO)C(O)C2O)CC(C)(NCc2ccc(-c3ccc(Cl)cc3)cc2)C1O (stereo not shown) [Compound 311],2

# Same assay, conditions: zone of inhibition relative to 1 mg/ml stock solution of p-chlorobiphenylvancomycin
row,Structure (SMILES),"zone score, S. aureus ATCC 29213"
1,CC1OC(OC2C(Oc3c4cc5cc3Oc3ccc(cc3Cl)C(O)C(NC(=O)C3OC(O)C(O)C3O)C(=O)NC(CC(N)=O)C(=O)NC5C(=O)NC3C(=O)NC(C(=O)NC(C(=O)O)c5cc(O)cc(O)c5-c5cc3ccc5O)C(O)c3ccc(c(Cl)c3)O4)OC(CO)C(O)C2O)CC(C)(NCc2ccc(-c3ccc(Cl)cc3)cc2)C1O (mixture of isomers) [Compound 128],2
2,C[C@H]1O[C@H](O[C@H]2[C@H](Oc3c4cc5cc3Oc3ccc(cc3Cl)[C@@H](O)[C@@H](NC(=O)[C@@H](N)Cc3ccc(OC(C)(C)C)cc3)C(=O)N[C@@H](CC(N)=O)C(=O)N[C@H]5C(=O)N[C@H]3C(=O)N[C@H](C(=O)N[C@@H](C(=O)O)c5cc(O)cc(O)c5-c5cc3ccc5O)[C@H](O)c3ccc(c(Cl)c3)O4)O[C@H](CO)[C@@H](O)[C@@H]2O)C[C@@](C)(NCc2ccc(-c3ccc(Cl)cc3)cc2)[C@H]1O [Compound 19],2
3,CC1OC(OC2C(Oc3c4cc5cc3Oc3ccc(cc3Cl)C(O)C3NC(=O)C(NC(=O)C5NC(=O)C(CC(N)=O)NC(=O)C(NC(=O)c5[nH]c(=O)[nH]c(=O)c5N)C(O)c5ccc(c(Cl)c5)O4)c4ccc(O)c(c4)-c4c(O)cc(O)cc4C(C(=O)O)NC3=O)OC(CO)C(O)C2O)CC(C)(NCc2ccc(-c3ccc(Cl)cc3)cc2)C1O (stereo not shown) [Compound 109],2
4,CC(=O)NC(C)C(=O)NC1C(=O)NC(CC(N)=O)C(=O)NC2C(=O)NC3C(=O)NC(C(=O)NC(C(=O)O)c4cc(O)cc(O)c4-c4cc3ccc4O)C(O)c3ccc(c(Cl)c3)Oc3cc2cc(c3OC2OC(CO)C(O)C(O)C2OC2CC(C)(NCc3ccc(-c4ccc(Cl)cc4)cc3)C(O)C(C)O2)Oc2ccc(cc2Cl)C1O (stereo not shown) [Compound 112],2
5,CC(=O)NCCCCC(NC(C)=O)C(=O)NC1C(=O)NC(CC(N)=O)C(=O)NC2C(=O)NC3C(=O)NC(C(=O)NC(C(=O)O)c4cc(O)cc(O)c4-c4cc3ccc4O)C(O)c3ccc(c(Cl)c3)Oc3cc2cc(c3OC2OC(CO)C(O)C(O)C2OC2CC(C)(NCc3ccc(-c4ccc(Cl)cc4)cc3)C(O)C(C)O2)Oc2ccc(cc2Cl)C1O (stereo not shown) [Compound 123],2
6,CC(=O)NC(CC[S+](C)[O-])C(=O)NC1C(=O)NC(CC(N)=O)C(=O)NC2C(=O)NC3C(=O)NC(C(=O)NC(C(=O)O)c4cc(O)cc(O)c4-c4cc3ccc4O)C(O)c3ccc(c(Cl)c3)Oc3cc2cc(c3OC2OC(CO)C(O)C(O)C2OC2CC(C)(NCc3ccc(-c4ccc(Cl)cc4)cc3)C(O)C(C)O2)Oc2ccc(cc2Cl)C1O (stereo not shown) [Compound 124],2
7,CC1OC(OC2C(Oc3c4cc5cc3Oc3ccc(cc3Cl)C(O)C3NC(=O)C(NC(=O)C5NC(=O)C(CC(N)=O)NC(=O)C(NC(=O)C(CCS(C)(=O)=O)NC(=O)OC(C)(C)C)C(O)c5ccc(c(Cl)c5)O4)c4ccc(O)c(c4)-c4c(O)cc(O)cc4C(C(=O)O)NC3=O)OC(CO)C(O)C2O)CC(C)(NCc2ccc(-c3ccc(Cl)cc3)cc2)C1O (stereo not shown) [Compound 143],2
8,CC1OC(OC2C(Oc3c4cc5cc3Oc3ccc(cc3Cl)[C@@H](O)[C@@H](NC(=O)CC3NC(=O)NC3=O)C(=O)N[C@@H](CC(N)=O)C(=O)N[C@H]5C(=O)NC3C(=O)N[C@H](C(=O)N[C@@H](C(=O)O)c5cc(O)cc(O)c5-c5cc3ccc5O)[C@H](O)c3ccc(c(Cl)c3)O4)OC(CO)C(O)C2O)CC(C)(NCc2ccc(-c3ccc(Cl)cc3)cc2)C1O (stereo partly shown) [Compound 163],2
9,CC1OC(OC2C(Oc3c4cc5cc3Oc3ccc(cc3Cl)C(O)C(NC(=O)C(C)(C)NC(N)=O)C(=O)NC(CC(N)=O)C(=O)NC5C(=O)NC3C(=O)NC(C(=O)NC(C(=O)O)c5cc(O)cc(O)c5-c5cc3ccc5O)C(O)c3ccc(c(Cl)c3)O4)OC(CO)C(O)C2O)CC(C)(NCc2ccc(-c3ccc(Cl)cc3)cc2)C1O (stereo not shown) [Compound 190],2
10,CSCCC(NC=O)C(=O)NC1C(=O)NC(CC(N)=O)C(=O)NC2C(=O)NC3C(=O)NC(C(=O)NC(C(=O)O)c4cc(O)cc(O)c4-c4cc3ccc4O)C(O)c3ccc(c(Cl)c3)Oc3cc2cc(c3OC2OC(CO)C(O)C(O)C2OC2CC(C)(NCc3ccc(-c4ccc(Cl)cc4)cc3)C(O)C(C)O2)Oc2ccc(cc2Cl)C1O (stereo not shown) [Compound 196],2
11,CC1OC(OC2C(Oc3c4cc5cc3Oc3ccc(cc3Cl)C(O)C3NC(=O)C(NC(=O)C5NC(=O)C(CC(N)=O)NC(=O)C(NC(=O)CCC(=O)NN(C)C)C(O)c5ccc(c(Cl)c5)O4)c4ccc(O)c(c4)-c4c(O)cc(O)cc4C(C(=O)O)NC3=O)OC(CO)C(O)C2O)CC(C)(NCc2ccc(-c3ccc(Cl)cc3)cc2)C1O (stereo not shown) [Compound 203],2
